14 compounds from ChEMBL document CHEMBL6071169, “Maydisens, Sesterterpenoids with Anti-MDR Activity from Bipolaris maydis” (J Nat Prod, 2024) can be followed below.

Active and inactive are the calls of the source. The calls are words filed in the database; no cut-off is given here.

For one experiment, the system named is MDA-MB-453. The experiment in a line: Cytotoxicity against human MDA-MB-453 cells at 20 uM incubated for 72 hrs by CCK-8 method. It counts as functional, cell-based. For orientation: Formazan colour is commonly taken as a measure of viable cells.
The subject of the next experiment is A549. Put plainly: Cytotoxicity against human A549 cells at 20 uM incubated for 72 hrs by CCK-8 method. It counts as functional, cell-based.
Experiment [1] deals with SW620/AD300. The experiment in a line: Reversal of paclitaxel resistance in human SW620/AD300 cells assessed as reduction in paclitaxel IC50 at 20 uM and measured after 72 hrs by CCK-8 method (reference value: 3.4 +/- 0.1 microM). Conditions: SW620/AD300, 72 h. The format is functional, cell-based.
Experiment [2] deals with SW620/AD300. The experiment in a line: Cytotoxicity against human SW620/AD300 cells at 20 uM incubated for 72 hrs by CCK-8 method. It counts as functional, cell-based.
Experiment [3] deals with SW620/AD300. Put plainly: Reversal of paclitaxel resistance in human SW620/AD300 cells assessed as reversal fold by measuring ratio of paclitaxel IC50 to paclitaxel IC50 in presence of test compound at 20 uM and measured after 72 hrs by CCK-8 method. It counts as functional.
For a further experiment, the system named is LNCaP C4-2B. The experiment in a line: Cytotoxicity against human LNCaP C4-2B cells at 20 uM incubated for 72 hrs by CCK-8 method. It counts as functional, cell-based.
The test system of experiment [4] is SW620/AD300. Put plainly: Inhibition of colony formation in human SW620/AD300 cells assessed as decrease in colony count at 20 uM measured after 7 days in presence of paclitaxel by crystal violet staining based analysis. It counts as functional, cell-based. The following applies: time 7.0 day.
Experiment [5] deals with SW620/AD300. The experiment in a line: Induction of cell cycle analysis in human SW620/AD300 cells assessed as increase in accumulation of cells at G2/M phase measured after 24 hrs by flow cytometry analysis. The format is functional, cell-based. Conditions: dose 5-20 µM. In general terms: In flow cytometry, cells or beads pass a laser one at a time.
The subject of experiment [6] is SW620/AD300. Put plainly: Inhibition of colony formation in human SW620/AD300 cells assessed as decrease in colony count at 5 uM measured after 7 days in presence of paclitaxel by crystal violet staining based analysis. It counts as functional, cell-based. The following applies: time 7.0 day.
Experiment [7] concerns SW620/AD300. Put plainly: Inhibition of colony formation in human SW620/AD300 cells assessed as decrease in colony count at 20 uM measured after 7 days by crystal violet staining based analysis. It counts as functional, cell-based. Conditions: time 7.0 day.
The subject of experiment [8] is SW620/AD300. Put plainly: Induction of cell cycle analysis in human SW620/AD300 cells assessed as increase in accumulation of cells at G0/G1 phase at 5 to 20 uM measured after 24 hrs by flow cytometry analysis. The format is functional, cell-based. The following applies: dose 5-20 µM.
Experiment [9] relates to SW620/AD300. The experiment in a line: Inhibition of colony formation in human SW620/AD300 cells assessed as decrease in colony count at 1 uM measured after 7 days by crystal violet staining based analysis. It counts as functional, cell-based. Conditions: time 7.0 day.

As to `CC(C)=CC(=O)C[C@H](C)[C@H]1CC[C@]2(C)C[C@@H]3C(C)=CC(=O)[C@H]3/C(CO)=C\C[C@@H]12`, the result in the experiment with MDA-MB-453, in the experiment with A549, with SW620/AD300 [2] and with LNCaP C4-2B was inactive. Further, the IC50 in the experiment on SW620/AD300 [1] was 200 nM. For the same compound, the “Ratio IC50” value with SW620/AD300 [3] is 17.

Consider `CC(C)=CCC[C@H](C)C1=CC[C@]2(C)C[C@@H]3C(C)=CC(=O)[C@H]3/C(CO)=C\C[C@@H]12`, for which the outcome in the experiment with MDA-MB-453, in the experiment on A549, in the experiment on SW620/AD300 [2] and in the experiment with LNCaP C4-2B was inactive. Also, the IC50 with SW620/AD300 [1] amounted to 50 nM. Further, the inhibition result with SW620/AD300 [4] and in the experiment on SW620/AD300 [6] was “Active” in each case. Also, the Activity result in the experiment with SW620/AD300 [5] was “Dose-Dependent Effect”. The “Ratio IC50” value in the experiment on SW620/AD300 [3] turned out to be 72. Also, the inhibition result with SW620/AD300 [7] is “inactive”. The result with SW620/AD300 [8] was Active.

`COC(OC)/C1=C/[C@H](O)[C@H]2[C@@H]([C@@H](C)CCC=C(C)C)CC[C@]2(C)C[C@@H]2C(C)=CC(=O)[C@@H]12`: the outcome in the experiment on MDA-MB-453, in the experiment on A549, with SW620/AD300 [2] and with LNCaP C4-2B was inactive. In addition, the IC50 in the experiment with SW620/AD300 [1] worked out at 250 nM. Moreover, the “Ratio IC50” value in the experiment with SW620/AD300 [3] is reported as 13.

Regarding `CC(C)=C/C=C/[C@H](C)[C@H]1CC[C@]2(C)C[C@@H]3C(C)=CC(=O)[C@H]3/C(CO)=C\C[C@@H]12`, the result in the experiment with MDA-MB-453, with A549, in the experiment with SW620/AD300 [2] and with LNCaP C4-2B was inactive.

As for `CC(C)=CCC[C@H](C)[C@H]1CC[C@]2(C)C[C@@H]3C(C)=CC(=O)[C@H]3[C@@H](CO)/C=C\[C@@H]12`, the result in the experiment on MDA-MB-453, in the experiment with A549, with SW620/AD300 [2] and in the experiment with LNCaP C4-2B was inactive.

For `C/C1=C/C[C@H]2[C@@H]([C@@H](C)CC/C=C(\C)CO)CC[C@]2(C)C/C=C(\C)CC[C@@H]1O`, the outcome with MDA-MB-453, in the experiment on A549, with SW620/AD300 [2] and in the experiment on LNCaP C4-2B was inactive.

For the compound `CC(C)=CCC[C@H](C)[C@H]1CC[C@]2(C)C[C@@]3(O)[C@H](C)CC(=O)[C@@H]3/C(CO)=C\C[C@@H]12`, the outcome in the experiment on MDA-MB-453, in the experiment on A549, with SW620/AD300 [2] and in the experiment with LNCaP C4-2B was inactive. Further, in the experiment on SW620/AD300 [1], the IC50 worked out at 1000 nM. Also, in the experiment with SW620/AD300 [3], the “Ratio IC50” value came out at 3.

For the compound `C/C(=C\CC[C@](C)(O)[C@H]1CC[C@]2(C)C/C=C(\C)CC/C=C(\C)CC[C@@H]12)CO`, the result in the experiment with MDA-MB-453, with A549, in the experiment with SW620/AD300 [2] and in the experiment with LNCaP C4-2B was inactive.

For `CC(C)=CCC[C@H](C)[C@H]1CC[C@]2(C)C[C@@H]3C(CO)=CC(=O)[C@H]3/C(C)=C\C[C@@H]12`, the outcome in the experiment with MDA-MB-453, in the experiment on A549, in the experiment on SW620/AD300 [2] and with LNCaP C4-2B was inactive.

Take `CC(C)=CCC[C@H](C)[C@H]1CC[C@]2(C)CC3=C(C(=O)C[C@H]3C)/C(CO)=C\C[C@@H]12`: the outcome in the experiment on MDA-MB-453, with A549, in the experiment with SW620/AD300 [2] and in the experiment on LNCaP C4-2B was inactive.

In the case of `CC(C)=CCC[C@H](C)C1=CC[C@]2(C)C[C@@H]3C(C)=CC(=O)[C@H]3/C(C=O)=C\C=C\12`, the outcome in the experiment with MDA-MB-453, with A549, in the experiment on SW620/AD300 [2] and with LNCaP C4-2B was inactive.

`C/C1=C\C[C@@]2(C)CC[C@H]([C@@H](C)CC/C=C(\C)C(=O)O)/C2=C/C[C@@]2(C)O[C@@H]2CC1`: the outcome in the experiment on MDA-MB-453, with A549, in the experiment with SW620/AD300 [2] and in the experiment with LNCaP C4-2B was inactive.

For `C/C1=C/C[C@H]2[C@@H]([C@@H](C)CC/C=C(\C)C(=O)O)CC[C@]2(C)C/C=C(\C)CC[C@@H]1O`, the result with MDA-MB-453, in the experiment with A549, in the experiment on SW620/AD300 [2] and in the experiment with LNCaP C4-2B was inactive.

Take `CC(=O)O[C@H]1C(=O)[C@@]2(C)[C@H]([C@H](OC(=O)c3ccccc3)[C@]3(O)C[C@H](OC(=O)[C@H](O)[C@@H](NC(=O)c4ccccc4)c4ccccc4)C(C)=C1C3(C)C)[C@]1(OC(C)=O)CO[C@@H]1C[C@@H]2O`: in the experiment on SW620/AD300 [9], the inhibition result is “inactive”.

The term IC50 denotes the concentration needed to halve the response being measured.
